Experimental data taken from publication PMC12368479, “Inhibition of the Clathrin Terminal Domain—Amphiphysin Protein–Protein Interaction. Probing the Pitstop 2 Aromatic Moiety” (Chemmedchem, 2025).
Read-outs that look alike come from different tables or passages of the source.

Columns and labels:
[1] = target: T1, clathrin heavy chain NTD (amino acids 1–364) – amphiphysin 1 B/C domain protein–protein interaction (NTD‐PPI) (Homo sapiens, UniProt Q00610); experiment: ELISA-based clathrin inhibitor binding assay (NTD-PPI)
T1 construct: GST‐tagged clathrin heavy chain NTD (amino acids 1–364); made in house
T1 sequence (Q00610 1-364): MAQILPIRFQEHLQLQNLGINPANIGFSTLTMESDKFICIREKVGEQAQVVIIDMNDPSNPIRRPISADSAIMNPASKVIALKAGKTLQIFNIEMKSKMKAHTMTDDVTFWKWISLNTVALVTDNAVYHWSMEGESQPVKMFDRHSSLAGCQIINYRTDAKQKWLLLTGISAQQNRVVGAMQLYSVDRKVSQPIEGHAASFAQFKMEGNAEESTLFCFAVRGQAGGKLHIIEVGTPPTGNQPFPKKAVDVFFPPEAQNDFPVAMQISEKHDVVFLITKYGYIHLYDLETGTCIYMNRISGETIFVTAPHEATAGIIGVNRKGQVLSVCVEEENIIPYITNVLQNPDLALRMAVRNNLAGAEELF
Procedure, shortened: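 His6-tagged amphiphysin 1 B/C domain (aa 250–578) was coated on plates in 20 mM HEPES pH 7.4, 50 mM NaCl, 1 mM DTT; compounds were incubated 1 h at room temperature with GST-clathrin NTD (aa 1–364). Bound NTD was detected by HRP anti-GST and TMB absorbance, expressed as percent binding of DMSO control.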

[2] = target: T2, full length human Dynamin I (Homo sapiens, UniProt Q05193); experiment: Dynamin GTPase activity, Malachite Green phosphate detection assay; assay type: biochemical
T2 construct: full length human Dynamin I expressed in Sf21 insect cells; made in house; host or cells: Sf21 insect cells
T2 sequence (Q05193 1-864): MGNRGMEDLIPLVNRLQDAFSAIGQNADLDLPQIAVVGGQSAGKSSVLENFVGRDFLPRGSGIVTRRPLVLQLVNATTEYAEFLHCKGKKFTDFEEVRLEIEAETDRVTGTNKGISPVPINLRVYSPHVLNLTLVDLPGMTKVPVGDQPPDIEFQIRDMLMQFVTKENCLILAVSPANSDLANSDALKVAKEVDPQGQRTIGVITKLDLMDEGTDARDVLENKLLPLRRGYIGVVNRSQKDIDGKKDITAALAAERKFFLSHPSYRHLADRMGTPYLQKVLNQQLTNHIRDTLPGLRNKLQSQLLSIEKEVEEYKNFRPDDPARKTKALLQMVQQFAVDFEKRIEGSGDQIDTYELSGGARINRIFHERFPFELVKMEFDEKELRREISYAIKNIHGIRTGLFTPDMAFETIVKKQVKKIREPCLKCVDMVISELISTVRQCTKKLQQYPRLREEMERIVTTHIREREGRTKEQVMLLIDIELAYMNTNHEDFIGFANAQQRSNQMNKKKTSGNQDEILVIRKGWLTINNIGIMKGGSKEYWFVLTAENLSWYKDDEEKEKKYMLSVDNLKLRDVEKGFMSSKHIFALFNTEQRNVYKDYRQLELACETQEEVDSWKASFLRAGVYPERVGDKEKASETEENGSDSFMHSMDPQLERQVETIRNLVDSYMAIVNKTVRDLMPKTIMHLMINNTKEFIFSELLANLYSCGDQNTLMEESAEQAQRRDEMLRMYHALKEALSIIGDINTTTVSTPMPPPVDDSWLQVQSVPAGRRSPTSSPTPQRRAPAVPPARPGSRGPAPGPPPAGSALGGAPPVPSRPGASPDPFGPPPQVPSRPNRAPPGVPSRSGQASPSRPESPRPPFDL
Method: Dynamin GTPase activity was determined in vitro using the Malachite Green phosphate detection absorbance‐based assay within a 96‐well plate format as described previously. The enzyme source was full length human Dynamin I expressed in Sf21 insect cells and affinity‐purified on GST‐Amph2‐SH3 (rat Amphiphysin 2 (494–588)).^[ [56] ^]

[3] = test system: transferrin uptake (CME) in U2OS osteosarcoma cells; experiment: Clathrin-mediated endocytosis assay: transferrin (Tfn) uptake in U2OS cells; assay type: cell-based; conditions: Homo sapiens, U2OS; for inhibition at 5 µM: read-out: 2-point CME (% Inhibition) 5 µM; for inhibition at 50 µM: read-out: 2-point CME (% Inhibition) 50 µM
Method: Using our previously reported CME assay in U2OS cells, the ability of these compounds to block endocytosis was examined (Table 5 ).^[ [48], [49] ^]
CME was examined by a high‐throughput, quantitative assay for measuring transferrin (Tfn) uptake in U2OS osteosarcoma cells, based on methods described previously.^[ [48] ^]
Compounds were made up fresh from powder stock just prior to commencing the assay, and stock solutions were stored at −20 °C for several months.

[4] = Qualitative solubility in solvents (compound data sheets, Supporting Information); assay type: physicochemical; conditions: solvents in which the compound dissolves
[5] = Table 1, library 1, ELISA, average of duplicate measurements (n=2), read-out: NTD‐PPI IC50
[6] = Table 5, ELISA, read-out: NTD‐PPI IC50
[7] = Table 1, library 1, n = 1 unless noted (19: n = 2), '–' = not active at 150 μM, read-out: Dyn 1 IC50
[8] = Table 5, dynamin GTPase, n = 1 or n = 2 as footnoted, NA = not active at 100 μM, read-out: Dynamin 1 IC50
[9] = Table 5, inhibition of transferrin‐red uptake in U2OS cells, '–'/NA = not active at 100 μM
[10] = Table 4, library 4, ELISA, average of duplicate measurements (n = 2), read-out: NTD‐PPI IC50
[11] = Table 4, library 4, n = 1 or n = 2 as footnoted, '–' = not active at 100 μM, read-out: Dynamin 1 IC50
[12] = Table S1, preliminary (n=1) unless otherwise noted, NA = not active, includes IC50 > 150 μM, read-out: Dynamin 1 IC50

Row | IC50 [1, 5] [µM] | IC50 [1, 6] [µM] | IC50 ([1]; read-out: NTD‐PPI IC50 (ELISA)) [µM] | IC50 [2, 7] [µM] | IC50 [2, 8] [µM] | IC50 [3, 9] [µM] | fold potency reduction (NTD‐PPI) ([1]; ELISA, comparator not named (lead Pitstop 2 series)) [fold] | fold less active (NTD‐PPI) than furan (48) ([1]; ELISA, C2 linked analogues) [fold] | IC50 [1, 10] [µM] | IC50 ([3]; U2OS cells) [µM] | IC50 [2, 11] [µM] | IC50 [2, 12] [µM] | IC50 ([1]; Table S1, average of duplicate measurements (n=2), read-out: NTD-PPI IC50) [µM] | Compound | Solubility [4] | inhibition at 5 µM [3] [%] | inhibition at 50 µM [3] [%]
1 | 5.6 | 5.6 | 2.7 | > 150 | > 100 | 46.7 ± 13.1 |  |  |  |  |  |  |  | O=C1N=C(NS(=O)(=O)c2cccc3ccccc23)S/C1=C\c1ccc(O)cc1 [compound 6, (Z)‐N‐(5‐(4‐hydroxybenzylidene)‐4‐oxo‐4,5‐dihydrothiazol‐2‐yl)naphthalene‐1‐sulfonamide] | DMSO, slightly soluble in ethanol, acetone, methanol and ethyl acetate |  | 
2 |  |  |  | > 150 | > 100 | 25 ± 14.6 |  |  |  |  |  |  |  | O=C1N=C(NS(=O)(=O)c2cccc3ccccc23)S/C1=C\c1cccc(O)c1 [compound 7, N‐[(5Z)‐5‐(3‐hydroxybenzylidene)‐4‐oxo‐4,5‐dihydro‐1,3‐thiazol‐2‐yl]naphthalene‐1‐sulfonamide] | DMSO, slightly soluble in acetone, ethyl acetate, methanol and ethanol |  | 
3 | 7.4 |  |  | > 150 |  |  |  |  |  |  |  |  |  | O=C1N=C(NS(=O)(=O)c2cccc3ccccc23)S/C1=C\c1ccc(C(=O)O)cc1 [compound 9, 4‐[(Z)‐{2‐[(naphthalen‐1‐ylsulfonyl)amino]‐4‐oxo‐1,3‐thiazol‐5(4H)‐ylidene}methyl]benzoic acid] | DMSO, slightly soluble in acetone, ethyl acetate, ethanol and methanol |  | 
4 | 5.3 |  |  | > 150 |  |  |  |  |  |  |  |  |  | O=C1N=C(NS(=O)(=O)c2cccc3ccccc23)S/C1=C\c1cccc(C(=O)O)c1 [compound 10, (Z)‐3‐((2‐(naphthalene‐1‐sulfonamido)‐4‐oxothiazol‐5(4 H)‐ylidene)methyl)benzoic acid] | DMSO |  | 
5 |  |  |  | > 150 | > 100 | 34.4 ± 13.7 |  |  |  |  |  |  |  | O=C1N=C(NS(=O)(=O)c2cccc3ccccc23)S/C1=C\c1cccc([N+](=O)[O-])c1 [compound 14, (Z)‐N‐(5‐(3‐nitrobenzylidene)‐4‐oxo‐4,5‐dihydrothiazol‐2‐yl)naphthalene‐1‐sulfonamide] | DMSO, slightly soluble in acetone, ethanol and methanol |  | 
6 | 153 | 153 |  | 42.2 | ~42.4 | 46.3 ± 13.7 | > 100 |  |  |  |  |  |  | O=C1N=C(NS(=O)(=O)c2cccc3ccccc23)S/C1=C\c1ccccc1[N+](=O)[O-] [compound 15, (Z)‐N‐(5‐(2‐nitrobenzylidene)‐4‐oxo‐4,5‐dihydrothiazol‐2‐yl)naphthalene‐1‐sulfonamide] | DMSO, slightly soluble in ethyl acetate, acetone, ethanol and methanol |  | 
7 |  | 5.3 |  |  |  | 27.2 ± 11.7 |  | 2 | 5.3 |  |  |  |  | O=C1N=C(NS(=O)(=O)c2cccc3ccccc23)S/C1=C\c1ccc[nH]1 [compound 47, (Z)‐N‐(5‐((1H‐pyrrol‐2‐yl)methylene)‐4‐oxo‐4,5‐dihydrothiazol‐2‐yl)naphthalene‐1‐sulfonamide] | DM SO slightly soluble in acetone an d methanol |  | 
8 |  | 3.64 | 3.6 |  |  | ~96.6 |  |  | 3.64 | > 50 |  |  |  | O=C1N=C(NS(=O)(=O)c2cccc3ccccc23)S/C1=C\c1ccco1 [compound 48, (Z)‐N‐(5‐(furan‐2‐ylmethylene)‐4‐oxo‐4,5‐dihydrothiazol‐2‐yl)naphthalene‐1‐sulfonamide] | DM SO, slig htly soluble in methanol |  | 
9 |  | 3.33 | < 5 |  | ~54.1 | > 100 |  |  | 3.33 | > 50 | ~54.1 |  |  | O=C1COc2ccc(/C=C3\SC(NS(=O)(=O)c4cccc5ccccc45)=NC3=O)cc2N1 [compound 52, (Z)‐N‐(4‐oxo‐5‐((3‐oxo‐3,4‐dihydro‐2H‐benzo[b][1,4]oxazin‐6‐yl)methylene)‐4,5‐dihydrothiazol‐2‐yl)naphthalene‐1‐sulfonamide] | DM SO, slig htly soluble in acetone, ethanol an d m ethanol |  | 
10 |  |  | < 5 |  | > 100 | 58.1 ± 12.6 |  |  | 3.27 | > 50 | > 100 |  |  | O=C1N=C(NS(=O)(=O)c2cccc3ccccc23)S/C1=C\c1ccc2c(c1)CCO2 [compound 57, (Z)‐N‐(5‐((2,3‐dihydrobenzofuran‐5‐yl)methylene)‐4‐oxo‐4,5‐dihydrothiazol‐2‐yl)naphthalene‐1‐sulfonamide] | DM SO, slig htly soluble in ethyl acetate, aceton e, ethanol and methanol |  | 
11 |  |  | 3.5 |  |  |  |  |  | 3.52 |  | > 100 | > 150 |  | Cc1ccc2[nH]cc(/C=C3\SC(NS(=O)(=O)c4cccc5ccccc45)=NC3=O)c2c1 [compound 63, (Z)‐N‐(5‐((5‐methyl‐1H‐indol‐3‐yl)methylene)‐4‐oxo‐4,5‐dihydrothiazol‐2‐yl)naphthalene‐1‐sulfonamide] |  | 6 | 68
12 |  |  | 3.4 |  |  |  |  |  | 3.42 |  | > 100 | > 150 |  | O=C1N=C(NS(=O)(=O)c2cccc3ccccc23)S/C1=C\c1c[nH]c2cc(Br)ccc12 [compound 64, (Z)‐N‐(5‐((6‐bromo‐1H‐indol‐3‐yl)methylene)‐4‐oxo‐4,5‐dihydrothiazol‐2‐yl)naphthalene‐1‐sulfonamide] |  | 17 | 70
13 |  |  |  |  |  |  |  |  | 2.91 |  | > 100 | > 150 | 2.9 | O=C1N=C(NS(=O)(=O)c2cccc3ccccc23)S/C1=C\c1c[nH]c2ccc(Br)cc12 [compound 65, (Z)‐N‐(5‐((5‐bromo‐1H‐indol‐3‐yl)methylene)‐4‐oxo‐4,5‐dihydrothiazol‐2‐yl)naphthalene‐1‐sulfonamide] |  | 0 | 64
14 |  | 27 |  |  | 99.8 ± 3.1 | > 100 |  |  | 27 |  | 99.8 ± 3.1 |  |  | O=C1N=C(NS(=O)(=O)c2cccc3ccccc23)S/C1=C\c1cn(S(=O)(=O)c2ccccc2)c2ccccc12 [compound 68, (Z)‐N‐(4‐oxo‐5‐((1‐(phenylsulfonyl)‐1H‐indol‐3‐yl)methylene)‐4,5‐dihydrothiazol‐2‐yl)naphthalene‐1‐sulfonamide] |  | 8 | 59
